Measurements from patent US6204220A, “Substituted 2-oxo-3-alkynoic acids and methods of use thereof” (Rutgers, The State University of New Jersey, priority 1999, dated 2001).
Like-named read-outs stand apart in the source and are kept apart here.

What was measured:
[1] = target: T1, Pyruvate oxidase from Lactobacillus plantarum (Lactiplantibacillus plantarum, UniProt P37063); assay: Inactivation of pyruvate oxidase (POX); assay type: biochemical; conditions: for kinact/KI: read-out: kc/Ki,c (converted)
T1 construct: purchased Boehringer Mannheim (a gift, not bought)
T1 sequence (P37063 1-603): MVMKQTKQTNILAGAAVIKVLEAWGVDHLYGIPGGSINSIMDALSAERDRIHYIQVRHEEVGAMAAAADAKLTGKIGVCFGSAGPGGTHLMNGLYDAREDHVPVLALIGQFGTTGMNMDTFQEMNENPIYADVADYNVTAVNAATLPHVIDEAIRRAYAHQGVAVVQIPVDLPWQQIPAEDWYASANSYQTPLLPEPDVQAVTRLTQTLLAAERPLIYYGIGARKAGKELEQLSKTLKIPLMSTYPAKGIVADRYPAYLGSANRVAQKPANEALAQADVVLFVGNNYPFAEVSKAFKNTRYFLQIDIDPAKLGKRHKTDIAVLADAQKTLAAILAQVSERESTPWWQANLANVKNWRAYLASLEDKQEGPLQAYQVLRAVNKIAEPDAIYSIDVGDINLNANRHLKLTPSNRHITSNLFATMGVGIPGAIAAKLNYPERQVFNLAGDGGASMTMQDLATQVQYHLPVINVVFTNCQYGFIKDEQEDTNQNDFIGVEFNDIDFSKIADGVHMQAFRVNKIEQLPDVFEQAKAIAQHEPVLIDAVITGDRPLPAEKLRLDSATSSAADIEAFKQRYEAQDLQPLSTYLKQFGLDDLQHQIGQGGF
Method: Pyruvate oxidase from Lactobacillus plantarum was a gift from Boehringer Mannheim and was assayed according to the manufacturer's instructions at 25° C. by measuring the rate of 4-quinonimine production from H2 O2, 3,5-dichlorophenolsulfonic acid and 4-aminoantipyrine in the presence of horseradish peroxidase, at 546 nm, using a Cobas-Bio (Roche Diagnostics, Somerville, N.J.) automated centrifugal analyzer. The assay reaction mixture (total vol. 0.25 mL) contained: 40 mM sodium pyruvate; 50 mM potassium phosphate buffer, pH 6.5 with 10% (v/v) glycerol; 6.8 mM 3,5-dichlorophenolsulfonic acid; 0.03% of 4-aminoantipyrine; and 5u/mL of horseradish peroxidase. The reaction was initiated by adding POX.

E1 = target: T2, E1 (Escherichia coli, UniProt P0AFG8); assay: Fluorescence measurements on binding to E1; parameters: species or system E. coli
T2 construct: made in house; host or cells: resolved from PDHc expressed in E. coli JRG1342
Method: Fluorescence measurements on the binding of 2-oxo-3-butynoic acid to E1. The fluorescence spectrum of apo-E1 (enzyme having no activity in the absence of ThDP) was measured using the SLM8100 spectrofluorimeter at 25° C. The excitation wavelength was 295 nm and the emission spectrum, presumably due to tryptophan, was recorded in the 300-450 nm range in a 1 mL or 3 mL quartz cuvette. The concentration of apo-E1 was 0.05-0.175 mg/mL in 20 mM KH2 PO4 buffer, pH 7.5. The excitation and emission monochromator slit widths were 4 nm. The V.3.0 software and KaleidaGraph computer program were used for data processing. The emission maximum for tryptophan (λ=335 nm) was determined by fitting the points from the peak using the KaleidaGraph computer program.

[2] = target: T3, C259N variant of 1-lip PDHc (Escherichia coli, UniProt P0AFG8, C260N); assay: Inactivation of C259N variant of 1-lip PDHc; assay type: biochemical, E. coli; conditions: butynoic acid at 1 mM
T3 construct: made in house; host or cells: E. coli JRG1342 (PDHc null), Ptac plasmid pGS596
Method: FIG. 6. Inactivation of 1-lip PDHc and its C259N and C259S variants by 2-oxo-3-butynoic acid. 1-lip PDHc (0.162 mg/mL) or the C259N and C259S variants of 1-lip PDHc (0.162 mg/mL) in 20 mM KH2 PO4 buffer, pH 7.5, containing 1 mM ThDP and 5 mM MgCl2 were incubated in the absence (curve 1: 1-lip PDHc and C259N variant) or in the presence of 1 mM of 2-oxo-3-butynoic acid (curve 2: the C259N variant; curve 3: 1-lip PDHc and the C259S variant) in a total volume 0.5 mL in the dark. At different times, aliquots of 50 μL were withdrawn and the overall activity was measured as described in FIG. 1A.
Bacterial strains and plasmids for PDHc. Derivatives of the PDHc null strain, E. coli JRG1342 contained Ptac expression plasmids encoding PDHc with E2 chains bearing three lipoyl domains (3-lip PDHc; pGS523, the wild type parental complex), or a single lipoyl domain in each E2 subunit (1-lip PDHc; pGS501), and variant 1-lip PDH complexes with mutations in the E1 gene leading to C259S (pGS457) and C259N (pGS596) substitutions (Machado et al., 1992; Machado, 1993).
Inactivation of 1-lip and 3-lip PDH complexes and resolved E1 component by 2-oxo-3-alkynoic acids. […]

E2-E3 subcomplex = target: T4, E2-E3 subcomplex (Escherichia coli, UniProt P06959+P0A9P0); assay: Preincubation of E2-E3 subcomplex with inhibitor, reconstitution with unmodified E1; assay type: biochemical, E. coli; conditions: up to 20 min preincubation, unmodified E1 added
T4 construct: made in house; host or cells: resolved from PDHc expressed in E. coli JRG1342
Method: Activity and related measurements on PDHc. The overall enzymatic reaction of the PDH complex was assayed using a Varian DMS 300 spectrophotometer or the Cobas Bio (Roche Diagnostics, Somerville, N.J.) automated centrifugal analyzer, monitoring the pyruvate-dependent reduction of NAD^+ at 340 nm. The reaction medium contained in 1 mL (DMS 300) or 0.25 mL (Cobas-Bio) test volume: 0.1 M Tris-HCl, pH 8.0; 1 mM MgCl2; 2 mM sodium pyruvate; 2.5 mM NAD^+; 0.052-0.2 mM coenzyme A; 0.2 mM ThDP; and 2.6 mM DTT at 27° C. The reaction was initiated either by adding enzyme to a mixture of all other components, or by adding CoA.
When the E2-E3 subcomplex was preincubated for different times (up to 20 min) with 2-oxo-3-butynoic acid, followed by dilution into a reaction mixture containing all components of the PDHc assay including unmodified E1 component, 100% of the activity could be reconstituted. In contrast, when resolved E1 was treated with inhibitors for different time periods before reconstitution with unmodified E2-E3 complex, a time-dependent decrease in the overall activity was observed (see FIG. 1B for resolved E1 reacted with 2-oxo-3-butynoic acid).

T2 sequence (P0AFG8 2-887): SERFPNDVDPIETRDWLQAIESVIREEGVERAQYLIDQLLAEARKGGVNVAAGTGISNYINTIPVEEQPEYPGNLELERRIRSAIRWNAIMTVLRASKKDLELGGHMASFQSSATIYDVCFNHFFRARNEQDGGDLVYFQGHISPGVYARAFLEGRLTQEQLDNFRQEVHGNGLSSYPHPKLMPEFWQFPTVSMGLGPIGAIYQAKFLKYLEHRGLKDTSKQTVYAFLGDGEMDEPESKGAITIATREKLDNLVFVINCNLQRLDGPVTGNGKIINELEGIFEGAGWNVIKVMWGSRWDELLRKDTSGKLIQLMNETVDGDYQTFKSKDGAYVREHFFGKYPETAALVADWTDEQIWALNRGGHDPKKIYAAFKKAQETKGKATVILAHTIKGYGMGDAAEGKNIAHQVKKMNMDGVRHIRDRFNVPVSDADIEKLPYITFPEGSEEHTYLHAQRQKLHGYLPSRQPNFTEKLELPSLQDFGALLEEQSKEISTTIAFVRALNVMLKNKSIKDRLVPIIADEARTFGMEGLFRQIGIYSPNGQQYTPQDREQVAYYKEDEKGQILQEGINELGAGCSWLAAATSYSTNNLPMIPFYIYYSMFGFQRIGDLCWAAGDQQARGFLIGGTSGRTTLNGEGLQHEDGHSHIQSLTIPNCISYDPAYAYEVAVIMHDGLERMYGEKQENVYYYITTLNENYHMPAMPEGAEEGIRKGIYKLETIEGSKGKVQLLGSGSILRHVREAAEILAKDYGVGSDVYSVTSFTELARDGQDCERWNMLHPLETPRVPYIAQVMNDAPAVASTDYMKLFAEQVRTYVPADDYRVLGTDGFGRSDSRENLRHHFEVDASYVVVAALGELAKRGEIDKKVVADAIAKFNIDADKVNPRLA
T3 sequence (P0AFG8 2-887 C260N): as the sequence (P0AFG8 2-887) above, with C259N counted along it
T4 sequence (P0A9P0 2-474): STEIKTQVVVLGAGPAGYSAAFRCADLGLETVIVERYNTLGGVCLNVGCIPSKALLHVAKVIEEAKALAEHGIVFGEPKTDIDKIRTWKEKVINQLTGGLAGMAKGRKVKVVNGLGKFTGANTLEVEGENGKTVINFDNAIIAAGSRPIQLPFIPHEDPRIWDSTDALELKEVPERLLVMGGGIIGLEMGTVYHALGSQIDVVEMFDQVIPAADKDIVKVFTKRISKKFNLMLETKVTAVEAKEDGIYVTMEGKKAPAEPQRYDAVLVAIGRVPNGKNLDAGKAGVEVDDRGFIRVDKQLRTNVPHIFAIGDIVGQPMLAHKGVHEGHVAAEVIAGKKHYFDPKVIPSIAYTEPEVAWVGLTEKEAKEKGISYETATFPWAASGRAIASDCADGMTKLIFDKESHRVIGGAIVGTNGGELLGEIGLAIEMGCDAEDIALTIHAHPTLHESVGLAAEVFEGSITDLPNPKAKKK
T4 sequence (P06959 whole entry): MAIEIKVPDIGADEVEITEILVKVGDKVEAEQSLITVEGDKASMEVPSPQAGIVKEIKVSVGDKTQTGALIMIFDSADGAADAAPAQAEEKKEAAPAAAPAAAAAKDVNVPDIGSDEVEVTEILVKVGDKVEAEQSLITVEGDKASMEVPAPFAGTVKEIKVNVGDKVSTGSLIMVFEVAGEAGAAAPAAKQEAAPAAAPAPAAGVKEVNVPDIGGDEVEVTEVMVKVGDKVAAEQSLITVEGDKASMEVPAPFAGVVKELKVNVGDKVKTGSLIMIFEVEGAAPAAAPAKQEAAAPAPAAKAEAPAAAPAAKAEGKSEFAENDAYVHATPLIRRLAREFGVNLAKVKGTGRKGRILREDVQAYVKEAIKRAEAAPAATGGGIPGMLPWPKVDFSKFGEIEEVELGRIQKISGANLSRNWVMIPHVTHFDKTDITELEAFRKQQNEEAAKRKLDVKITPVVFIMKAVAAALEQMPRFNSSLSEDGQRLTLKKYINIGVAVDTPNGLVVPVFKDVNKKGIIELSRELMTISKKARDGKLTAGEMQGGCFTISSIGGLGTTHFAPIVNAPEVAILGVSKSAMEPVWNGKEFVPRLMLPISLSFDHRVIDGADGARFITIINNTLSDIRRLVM

Compound | inhibition / inactivation of POX (in words) [1] | saturation by inhibitor ([1]; POX) | kinact/KI ([1]; POX, from linear portion at high inhibitor concentrations (d)) [M⁻¹ s⁻¹] | kinact/KI ([1]; POX, from linear portion at low inhibitor concentrations (c)) [M⁻¹ s⁻¹] | decrease of fluorescence intensity (E1; 0.033 mM inhibitor) | decrease of fluorescence intensity (E1; 0.1 mM inhibitor) [%] | decrease of fluorescence intensity of E1 at 335 nm (E1; 0.11 mM, E1 0.173 mg/ml, ThDP 0.2 mM, MgCl2 1 mM) | first-order rate constant of fluorescence intensity decrease, slow phase (E1; absence of added ThDP, 0.11 mM) [min⁻¹] | inactivation of C259N variant [2] | activity reconstituted after preincubation of E2-E3 subcomplex with inhibitor (E2-E3 subcomplex) [%] | Ki ([1]; POX, read-out: Ki,c) [µM] | kinact/KI ([1]; POX) [M⁻¹ s⁻¹] | kinact ([1]; POX, read-out: ki (converted)) [s⁻¹]
CCCC#CC(=O)C(=O)O [2-oxo-3-heptynoic acid, 2-Oxo-3-heptynoic acid] | inhibit | no | 0.32 | 0.0615 | – | – | – | – | – | – | – | – | –
C#CC(=O)C(=O)O [2-oxo-3-butynoic acid, 2-Oxo-3-butynoic acid] | irreversibly inactivates | yes | – | – | about 35% | 66 | about 66% | 0.042 | inactivated | 100 | 951 | 4.7 | 0.00447
